# Measurements as given in patent US20040266862A1, “Method of improving animal tissue quality by supplementing the animal diet with mixed tocotrienols” (priority 2003, published 2004).
# Marks after values point to notes of the source that are not given here.
# How the values were obtained:
# cattle [1] = experiment: 2002-03 cattle feed test: moisture, fat and TBARS content of raw ground beef patties; type: in vivo; conditions: 300 ppm in diet
# Source text: (§1) Applicants also assessed the effects of antioxidant supplementation on beef quality in an experiment in which ground beef and steaks from cattle fed one of four dietary treatments were compared. Forty steers (average weight 1082 lbs.) were blocked by weight (heavy or light) and assigned to eight outdoor group pens. Pens were randomly assigned within weight blocks to four dietary treatments (two pens per dietary treatment): control, 300 ppm gamma-tocopherol, 150 ppm MT or 300 ppm MT. As in the swine and poultry feed trials, the MT supplement was obtained commercially from Fuji Chemical Industries (U.S.A.) Inc. of Robbinsville, N.J., and contained 7.5% alpha-, 12.3% gamma- and 3.0% delta-tocotrienol for a total MT content of 22.8 wt %, as well as 7.2% alpha-tocopherol. The control diet was not supplemented with even the NRC (1996) recommended level of vitamin E (15 to 60 ppm). […]
# (§2) The dietary treatments were top-dressed onto the feed and mixed with the morning daily feed. The target level for feeding gamma-tocopherol was calculated to be 2 g per animal per day. […]
# Four pounds of lean and one pound of fat were harvested from each steer and mixed to produce ground beef patties with a targeted fat content of 20%. […] The pre- and post-display ground beef patties were analyzed for oxidative stability by determining their TBARS concentration.
# cattle [2] = experiment: 2002-03 cattle feed test: TBARS content of raw ribeye steaks; type: in vivo; conditions: 300 ppm in diet
# Source text: as §1, with “alpha-tocopherol.” for “alpha-tocopherol. The control diet was not supplemented with even the NRC (1996) recommended level of vitamin E (15 to 60 ppm).”
# as §2
# The ribeye steaks utilized for color evaluation were placed onto 17S foam trays with meat, fish, and poultry pads (Dri-Loc AC-50) and wrapped with polyvinyl chloride film. […] Case temperature was monitored using temperature recorders. […] Pre-storage color was evaluated on an eight point scale. Panelists evaluated post-13 day storage color using a five-point scale with 0.5 intervals. […]
structure (smiles),measurement,setting,value
"Cc1c(O)cc2c(c1C)O[C@](C)(CCC[C@H](C)CCC[C@H](C)CCCC(C)C)CC2 [GT, gamma-tocopherol]",TBARS content,cattle [1]; Post-display (5 days retail display),0.663^ab Mg Malonaldehyde/1000 g ground beef
same,TBARS content,cattle [1]; Pre-display,0.173 Mg Malonaldehyde/1000 g ground beef
same,TBARS content,cattle [2]; Post-display,0.411^b Mg Malonaldehyde/1000 g steak
same,TBARS content,cattle [2]; Pre-display,0.076 Mg Malonaldehyde/1000 g steak
